Data on one compound can be found in patent US8728470B2, “CAB molecules” (Danisco US Inc., priority 2004, dated 2014).

Each structure is given as a SMILES string.

This data set is described as follows: PK and tissue distribution of GC-Mel/Mel at various intervals after CAB 1.11i in TLS174T xenograft mice. The format is in vivo, Ncr athymic nude mice. As to the method: We assessed the tumor retention characteristics of CAB1.11i by monitoring the formation of Mel from the administration of GC-Mel. Dosing solutions were prepared on the day of dosing, within 60 minutes of administration.
The concentration of the formulation of GC-Mel in bicarbonate/sucrose was based on average […] weight, the desired volume of administration and a dose level of 150 mg/kg. GC-Mel was weighed out and, based on this weight, the appropriate amount of sodium bicarbonate to neutralize all 3 equivalents of the three carboxylic acid sites of GC-Mel was determined. Vehicle was prepared in the required volume by adding the precalculated sodium bicarbonate solution in 5% aqueous sucrose. Vehicle was prechilled at 4° C. Cold vehicle was added to the GC-Mel powder and the mixture was vortexed and sonicated to achieve speedy dissolution.
The animals were be implanted subcutaneously on the flank with 2×10^6 TLS174T cells, a human colorectal tumor line, in 100 μl of phosphate buffered saline. Beginning approximately one week after tumor cell implant, tumors were measured every 3 to 4 days. When the tumors reached approximately 100-250 mm^3, 156 animals were selected based on tumor size and randomized into 7 groups, resulting in a non-significant difference in the mean tumor size between groups at the start of the experiment.
Mice were warmed with a heating lamp and heating pad, placed in a restrainer and the test compounds were administered by bolus intravenous injection via the tail vein. For the blood sampling, all mice were anesthetized by isoflurane inhalation at the time of sample collection. Blood was collected by cardiac puncture into tubes containing EDTA and placed on ice. Tubes were centrifuged at 4000 RPM for two minutes. The plasma fraction was removed into a pre-labeled microfuge tube and placed on dry ice or liquid nitrogen. Sample concentrations were determined.
Tissue samples were rinsed 1× in phosphate buffered saline to remove blood. The samples were snap frozen using liquid nitrogen or dry ice. Tissue samples were stored at −70° C. prior to analysis. […]

As for `N[C@@H](Cc1ccc(N(CCCl)CCCl)cc1)C(=O)O` [Mel, Melphalan], for the setting “GC-Mel 150 mg/kg given 96 hrs after CAB 1.11i 1 mg/kg”, the “plasma Mel level” value was “decreased to near background (concomitant) levels”. The “plasma and kidney exposure to Mel (AUC)” value (with increased interval between CAB 1.11i and GC-Mel doses, FIG. 17) is recorded as “decreased”. Moreover, the “systemic melphalan exposure (AUC)” value (with increasing interval, FIG. 18) is given as “decreased”.
